Measured values: patent US5705487A, “Antithrombotic agents” (priority 1995, dated 1998)
Where a name gives a salt, the structure may show the parent alone.

Tests used:
Type in all cases: biochemical
Human Plasma [1] = experiment: Human plasma anticoagulation, activated partial thromboplastin time (APTT); conditions: concentration required to double the clotting time
Description: (§1) Dog plasma and rat plasma is obtained from conscious mixed-breed hounds (either sex, Hazelton-LRE, Kalamazoo, Mich., U.S.A.) or from anesthetized male Sprague-Dawley rats (Harlan Sprague-Dawley, Inc., Indianapolis, Ind., U.S.A.) by venipuncture into 3.8 percent citrate. Fibrinogen is prepared from in-date ACD human blood as the fraction I-2 according to previous procedures and specifications. […] Human fibrinogen is also purchased as 98 percent pure/plasmin free from American Diagnostica, Greenwich, Conn. Coagulation reagents ACTIN, Thromboplastin, and Human plasma are from Baxter Healthcare Corp., Dade Division, Miami, Fla. Bovine thrombin from Parke-Davis ([…], Mich.) is used for coagulation assays in plasma.
(§2) Coagulation assay procedures are as previously described. […] A CoAScreener coagulation instrument (American LABor, Inc.) is used for all coagulation assay measurements. The prothrombin time (PT) is measured by adding 0.05 mL saline and 0.05 mL Thromboplastin-C reagent to 0.05 mL test plasma. The activated partial thromboplastin time (APTT) is measured by incubation of 0.05 mL test plasma with 0.05 mL Actin reagent for 120 seconds followed by 0.05 mL CaCl2 (0.02M). The thrombin time (TT) is measured by adding 0.05 mL saline and 0.05 mL thrombin (10 NIH units/mL) to 0.05 mL test plasma. The compounds of Formula I are added to human or animal plasma over a wide range of concentrations to determine prolongation effects on the APTT, PT, and TT assays. Linear extrapolations are performed to estimate the concentrations required to double the clotting time for each assay.

Human Thrombin = Human Thrombin (Homo sapiens, UniProt P00734); experiment: Inhibition of the amidase activity of thrombin (Kass); conditions: chromogenic substrate N-benzoyl-Phe-Val-Arg-p-nitroanilide; mean over range of concentrations
Human Plasma [2] = experiment: Human plasma anticoagulation, thrombin time (TT); conditions: concentration required to double the clotting time
Description: as §1, §2

Human Plasma [3] = experiment: Human plasma anticoagulation, prothrombin time (PT); conditions: concentration required to double the clotting time
Description: as §1, §2

Human plasmin = biological target: T1, Human plasmin (Homo sapiens, UniProt P00747); experiment: Kass, plasmin chromogenic substrate assay; conditions: substrate H-D-Val-Leu-Lys-p-nitroanilide
T1 construct: Human plasmin is purchased from Boehringer Mannheim; purchased Boehringer Mannheim, Indianapolis, Ind
Description: (§3) By substantially following the procedures described above for human thrombin, and using other human blood coagulation system serine proteases and proteases of the fibrinolytic system with the appropriate chromogenic substrates, identified below, selectivity of the compounds of the present invention with respect to the coagulation factor serine proteases and with respect to the fibrinolytic system serine proteases are evaluated as well as their substantial lack of interference with serine proteases of the fibrinolytic system.
Human plasmin is purchased from Boehringer Mannheim, Indianapolis, Ind.; nt-PA is purchased as single chain activity reference from American Diagnostica, Greenwich, Conn.; modified-t-PA6 (mt-PA6) is prepared at Eli Lilly and Company by procedure known in the art (See, Burck, et al., J. Biol. Chem., 265, 5120-5177 (1990). Plasmin chromogenic substrate H-D-Val-Leu-Lys-p-nitroanilide and tissue plasminogen activator (t-PA) substrate H-D-Ile-Pro-Arg-p-nitroanilide are purchased from Kabi Vitrum, Stockholm, Sweden.

factor Xa = biological target: T2, factor Xa (Homo sapiens, UniProt P00742); experiment: Kass, factor Xa chromogenic substrate assay; conditions: substrate N-Benzoyl-Ile-Glu-Gly-Arg-p-nitroanilide
T2 construct: Human factors X, Xa, IXa, XIa, and XIIa are purchased; purchased Enzyme Research Laboratories, South Bend, Ind
Description: as §3
(§4) Chromogenic substrates: N-Benzoyl-Ile-Glu-Gly-Arg-p-nitroanilide (for factor Xa); N-Cbz-D-Arg-Gly-Arg-p-nitroanilide (for factor IXa assay as the factor Xa substrate); Pyroglutamyl-Pro-Arg-p-nitroanilide (for Factor XIa and for aPC); H-D-Pro-Phe-Arg-p-nitroanilide (for factor XIIa); and Pyroglutamyl-Gly-Arg-p-nitroanilide (for urokinase); are purchased from KabiVirum, Stockholm, Sweden, or from Midwest Biotech, Fishers, Ind. Bovine trypsin is purchased from Worthington Biochemicals, Freehold, N.J., and human plasma kallikrein from Kabi Vitrum, Stockholm, Sweden. […] N-Benzoyl-Phe-Val-Arg-p-nitroanilide, the substrate for human thrombin and for trypsin, is synthesized according to procedures described above for the compounds of the present invention, using known methods of peptide coupling from commercially available reactants or purchased from Midwest Biotech, Fishers, Ind.

Bovine trypsin = biological target: T3, Bovine trypsin (Bos taurus, UniProt P00760); experiment: Kass, trypsin chromogenic substrate assay; conditions: substrate N-Benzoyl-Phe-Val-Arg-p-nitroanilide
T3 construct: Bovine trypsin is purchased from Worthington Biochemicals; purchased Worthington Biochemicals, Freehold, N.J
T3 sequence (P00760 24-246): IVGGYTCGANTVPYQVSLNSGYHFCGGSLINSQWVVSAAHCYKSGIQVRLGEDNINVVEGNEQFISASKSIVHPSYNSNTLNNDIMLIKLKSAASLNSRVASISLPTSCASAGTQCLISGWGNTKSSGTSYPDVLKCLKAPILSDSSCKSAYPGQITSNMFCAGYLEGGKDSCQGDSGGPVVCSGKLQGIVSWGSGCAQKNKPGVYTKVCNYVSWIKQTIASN
Description: as §3, §4

T2 sequence (P00742 235-488 limits assumed): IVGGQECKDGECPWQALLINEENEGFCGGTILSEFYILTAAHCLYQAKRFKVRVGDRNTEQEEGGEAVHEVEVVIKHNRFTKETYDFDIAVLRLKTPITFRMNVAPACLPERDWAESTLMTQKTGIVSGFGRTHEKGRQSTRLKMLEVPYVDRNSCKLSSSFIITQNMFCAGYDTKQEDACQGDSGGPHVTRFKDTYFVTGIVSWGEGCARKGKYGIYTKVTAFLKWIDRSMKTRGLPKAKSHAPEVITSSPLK
T2 sequence (P00742 41-179 partner limits assumed): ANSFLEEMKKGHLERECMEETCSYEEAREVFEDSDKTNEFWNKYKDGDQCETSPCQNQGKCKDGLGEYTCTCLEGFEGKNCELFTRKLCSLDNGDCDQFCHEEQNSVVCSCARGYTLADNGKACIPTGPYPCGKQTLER
T1 sequence (P00747 581-810 limits assumed): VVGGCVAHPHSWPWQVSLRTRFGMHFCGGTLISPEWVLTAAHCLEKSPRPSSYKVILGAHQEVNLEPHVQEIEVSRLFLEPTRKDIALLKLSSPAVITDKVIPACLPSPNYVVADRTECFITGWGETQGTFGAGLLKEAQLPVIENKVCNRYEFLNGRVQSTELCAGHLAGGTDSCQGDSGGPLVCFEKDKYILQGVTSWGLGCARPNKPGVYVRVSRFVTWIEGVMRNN
T1 sequence (P00747 97-580 partner limits assumed): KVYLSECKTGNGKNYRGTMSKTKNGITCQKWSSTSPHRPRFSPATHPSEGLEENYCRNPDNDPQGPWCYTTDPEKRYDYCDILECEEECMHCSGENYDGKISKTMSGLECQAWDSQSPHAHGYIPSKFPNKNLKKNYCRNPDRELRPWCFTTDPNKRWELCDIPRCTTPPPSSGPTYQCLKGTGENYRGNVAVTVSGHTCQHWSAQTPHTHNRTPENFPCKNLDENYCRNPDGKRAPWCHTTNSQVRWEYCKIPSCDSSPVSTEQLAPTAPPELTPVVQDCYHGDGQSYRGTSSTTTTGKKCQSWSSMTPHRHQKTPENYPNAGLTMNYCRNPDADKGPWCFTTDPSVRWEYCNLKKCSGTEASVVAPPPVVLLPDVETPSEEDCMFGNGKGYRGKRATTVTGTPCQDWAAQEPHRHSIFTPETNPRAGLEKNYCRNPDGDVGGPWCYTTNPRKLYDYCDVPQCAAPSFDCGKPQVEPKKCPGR

Molecule: N=C(N)Nc1cccc(CNC(=O)[C@@H]2CCCN2C(=O)[C@@H]2NCC[C@@H]3CCCC[C@@H]32)c1 [Example 40, D-1-Piq-Pro-m-NHCH2 C6 H4 NHC(NH)NH2.2HCl]
- Human Plasma Anticoagulation 2x Clotting time APTT (Human Plasma [1]): > 91,000 ng/mL
- Kass × 10^6 (L/mole) Human Thrombin (Human Thrombin): 0.03 × 10^6 L/mole
- Human Plasma Anticoagulation 2x Clotting time TT (Human Plasma [2]): 35,100 ng/mL
- Human Plasma Anticoagulation 2x Clotting time PT (Human Plasma [3]): > 91,000 ng/mL
- Kass × 10^6 (L/mole) Plasmin (Human plasmin): < 0.001 × 10^6 L/mole
- Kass × 10^6 (L/mole) Xa (factor Xa): < 0.001 × 10^6 L/mole
- Kass × 10^6 (L/mole) Trypsin (Bovine trypsin): 0.01 × 10^6 L/mole

Molecule: N=C(N)c1ccc(CNC(=O)[C@@H]2CCCN2C(=O)[C@@H](CCC2CCCCC2)NCC(=O)O)cc1 [Example 88, HOOCCH2 -D-hCha-Pro-p-NHCH2 C6 H4 C(NH)NH2.HCl]
- Human Plasma Anticoagulation 2x Clotting time APTT (Human Plasma [1]): 100 ng/mL
- Kass × 10^6 (L/mole) Human Thrombin (Human Thrombin): 410 × 10^6 L/mole
- Human Plasma Anticoagulation 2x Clotting time TT (Human Plasma [2]): 4 ng/mL
- Human Plasma Anticoagulation 2x Clotting time PT (Human Plasma [3]): 200 ng/mL
- Kass × 10^6 (L/mole) Xa (factor Xa): 3.9 × 10^6 L/mole

Molecule: CCS(=O)(=O)N[C@H](Cc1ccccc1)C(=O)N1CCC[C@H]1C(=O)NCCc1cccc(N=C(N)N)c1.Cl [Example 37, EtSO2 -D-Phe-Pro-m-NHCH2 CH2 C6 H4 NHC(NH)NH2.HCl]
- Human Plasma Anticoagulation 2x Clotting time APTT (Human Plasma [1]): > 9,000 ng/mL
- Kass × 10^6 (L/mole) Human Thrombin (Human Thrombin): 0.02 × 10^6 L/mole
- Human Plasma Anticoagulation 2x Clotting time TT (Human Plasma [2]): > 9,000 ng/mL
- Human Plasma Anticoagulation 2x Clotting time PT (Human Plasma [3]): > 9,000 ng/mL
- Kass × 10^6 (L/mole) Xa (factor Xa): < 0.009 × 10^6 L/mole

Molecule: CS(=O)(=O)CC(=O)N[C@H](CC1CCCCC1)C(=O)N1CCC[C@H]1C(=O)NCc1ccc(C(=N)N)cc1 [Example 92, MeSO2 CH2 CO-D-Cha-Pro-P-NHCH2 C6 H4 C(NH)NH2.HCl]
- Human Plasma Anticoagulation 2x Clotting time APTT (Human Plasma [1]): 210 ng/mL
- Kass × 10^6 (L/mole) Human Thrombin (Human Thrombin): 130 × 10^6 L/mole
- Human Plasma Anticoagulation 2x Clotting time TT (Human Plasma [2]): 8.9 ng/mL
- Human Plasma Anticoagulation 2x Clotting time PT (Human Plasma [3]): 340 ng/mL
- Kass × 10^6 (L/mole) Trypsin (Bovine trypsin): 7.7 × 10^6 L/mole

Molecule: N=C(N)c1ccc(CNC(=O)[C@@H]2CCCN2C(=O)[C@@H](CC2CCCCC2)NCC(=O)O)nc1 [Example 66, HO2 CCH2 -D-Cha-Pro-2-NHCH2 -5-amidinopyridine.HCl]
- Human Plasma Anticoagulation 2x Clotting time APTT (Human Plasma [1]): 180 ng/mL
- Kass × 10^6 (L/mole) Human Thrombin (Human Thrombin): 120 × 10^6 L/mole
- Human Plasma Anticoagulation 2x Clotting time TT (Human Plasma [2]): 7.9 ng/mL
- Human Plasma Anticoagulation 2x Clotting time PT (Human Plasma [3]): 270 ng/mL
- Kass × 10^6 (L/mole) Trypsin (Bovine trypsin): 4.6 × 10^6 L/mole

Molecule: CCS(=O)(=O)N[C@H](CC1CCCCC1)C(=O)N1CCC[C@H]1C(=O)NCc1ccc(CN)cc1 [Example 81, EtSO2 -D-Cha-Pro-4-NHCH2 C6 H4 CH2 NH2.HCl]
- Human Plasma Anticoagulation 2x Clotting time APTT (Human Plasma [1]): 1,500 ng/mL
- Kass × 10^6 (L/mole) Human Thrombin (Human Thrombin): 5.3 × 10^6 L/mole
- Human Plasma Anticoagulation 2x Clotting time TT (Human Plasma [2]): 110 ng/mL
- Human Plasma Anticoagulation 2x Clotting time PT (Human Plasma [3]): 2,700 ng/mL
- Kass × 10^6 (L/mole) Trypsin (Bovine trypsin): 2.1 × 10^6 L/mole

Molecule: Cl.Nc1cc(CCNC(=O)[C@@H]2CCCN2C(=O)[C@@H](CC2CCCCC2)NCC(=O)O)ccn1 [Example 76, HO2 CCH2 -D-Cha-Pro-4-NHCH2 CH2 -2-aminopyridine.HCl]
- Human Plasma Anticoagulation 2x Clotting time APTT (Human Plasma [1]): 490 ng/mL
- Kass × 10^6 (L/mole) Human Thrombin (Human Thrombin): 12 × 10^6 L/mole
- Human Plasma Anticoagulation 2x Clotting time TT (Human Plasma [2]): 29 ng/mL
- Human Plasma Anticoagulation 2x Clotting time PT (Human Plasma [3]): 560 ng/mL
- Kass × 10^6 (L/mole) Trypsin (Bovine trypsin): 0.36 × 10^6 L/mole

Molecule: NCC1CCC(CNC(=O)[C@@H]2CCCN2C(=O)[C@@H](CC2CCCCC2)NCC(=O)O)CC1 (stereo partly drawn) [Example 79, HO2 CCH2 -D-Cha-Pro-4-NHCH2 C6 H10 CH2 NH2.HCl]
- Human Plasma Anticoagulation 2x Clotting time APTT (Human Plasma [1]): 1,700 ng/mL
- Kass × 10^6 (L/mole) Human Thrombin (Human Thrombin): 2.0 × 10^6 L/mole
- Human Plasma Anticoagulation 2x Clotting time TT (Human Plasma [2]): 140 ng/mL
- Human Plasma Anticoagulation 2x Clotting time PT (Human Plasma [3]): 2,400 ng/mL
- Kass × 10^6 (L/mole) Trypsin (Bovine trypsin): 0.24 × 10^6 L/mole

Molecule: Cl.N=C(N)c1ccc(CNC(=O)CN(CCc2ccccc2)C(=O)CNCC(=O)O)cc1 [Example 89, HOOCCH2 -Gly-N-C6 H5 CH2 CH2 Gly-p-NHCH2 C6 H4 C(NH)NH2.HCl]
- Human Plasma Anticoagulation 2x Clotting time APTT (Human Plasma [1]): 51,000 ng/mL
- Kass × 10^6 (L/mole) Human Thrombin (Human Thrombin): 0.14 × 10^6 L/mole
- Human Plasma Anticoagulation 2x Clotting time TT (Human Plasma [2]): 570 ng/mL
- Human Plasma Anticoagulation 2x Clotting time PT (Human Plasma [3]): 37,000 ng/mL
- Kass × 10^6 (L/mole) Xa (factor Xa): 0.071 × 10^6 L/mole

Molecule: N=C(N)Nc1cccc(CCNC(=O)[C@@H]2CCCN2C(=O)[C@@H]2NCC[C@@H]3CCCC[C@@H]32)c1 [Example 41, D-1-Piq-Pro-m-NHCH2 CH2 C6 H4 NHC(NH)NH2.2HCl]
- Human Plasma Anticoagulation 2x Clotting time APTT (Human Plasma [1]): > 91,000 ng/mL
- Kass × 10^6 (L/mole) Human Thrombin (Human Thrombin): 0.01 × 10^6 L/mole
- Human Plasma Anticoagulation 2x Clotting time TT (Human Plasma [2]): 82,200 ng/mL
- Human Plasma Anticoagulation 2x Clotting time PT (Human Plasma [3]): > 91,000 ng/mL
- Kass × 10^6 (L/mole) Plasmin (Human plasmin): < 0.001 × 10^6 L/mole
- Kass × 10^6 (L/mole) Xa (factor Xa): < 0.001 × 10^6 L/mole
- Kass × 10^6 (L/mole) Trypsin (Bovine trypsin): < 0.001 × 10^6 L/mole

Molecule: Cl.N=C(N)c1ccc(CNC(=O)[C@@H]2CCCN2C(=O)[C@@H](CC2CCCCC2)NCC(=O)O)c(F)c1 [Example 71, HO2 CCH2 -D-Cha-Pro-4-NHCH2 -3-F-benzamidine.HCl]
- Human Plasma Anticoagulation 2x Clotting time APTT (Human Plasma [1]): 89 ng/mL
- Kass × 10^6 (L/mole) Human Thrombin (Human Thrombin): 1,400 × 10^6 L/mole
- Human Plasma Anticoagulation 2x Clotting time TT (Human Plasma [2]): 1 ng/mL
- Human Plasma Anticoagulation 2x Clotting time PT (Human Plasma [3]): 150 ng/mL
- Kass × 10^6 (L/mole) Trypsin (Bovine trypsin): 240. × 10^6 L/mole

Molecule: CCS(=O)(=O)N[C@H](CC1CCCCC1)C(=O)N1CCC[C@H]1C(=O)NCc1ccnc(N)c1.Cl [Example 83, EtSO2 -D-Cha-Pro-4-NHCH2 -2-aminopyridine.HCl]
- Human Plasma Anticoagulation 2x Clotting time APTT (Human Plasma [1]): 1,000 ng/mL
- Kass × 10^6 (L/mole) Human Thrombin (Human Thrombin): 2.4 × 10^6 L/mole
- Human Plasma Anticoagulation 2x Clotting time TT (Human Plasma [2]): 91 ng/mL
- Human Plasma Anticoagulation 2x Clotting time PT (Human Plasma [3]): 1,300 ng/mL
- Kass × 10^6 (L/mole) Trypsin (Bovine trypsin): 0.03 × 10^6 L/mole

Molecule: CCC(CC)C(=O)N[C@@H](CCS(C)(=O)=O)C(=O)N1CCC[C@H]1C(=O)NCc1ccc(C(=N)N)cc1 [Example 91, (C2 H5)2 CHCO-Met(O2)-Pro-p-NHCH2 C6 H4 C(NH)NH2.HCl]
- Human Plasma Anticoagulation 2x Clotting time APTT (Human Plasma [1]): 3,000 ng/mL
- Kass × 10^6 (L/mole) Human Thrombin (Human Thrombin): 3.6 × 10^6 L/mole
- Human Plasma Anticoagulation 2x Clotting time TT (Human Plasma [2]): 63 ng/mL
- Human Plasma Anticoagulation 2x Clotting time PT (Human Plasma [3]): 3,500 ng/mL
- Kass × 10^6 (L/mole) Xa (factor Xa): 0.007 × 10^6 L/mole

Molecule: Cl.Nc1ccc(CNC(=O)[C@@H]2CCCN2C(=O)[C@@H](CC2CCCCC2)NCC(=O)O)c(F)c1 [Example 64, HO2 CCH2 -D-Cha-Pro-4-NHCH2 -3-F-C6 H3 NH2.HCl]
- Human Plasma Anticoagulation 2x Clotting time APTT (Human Plasma [1]): 900 ng/mL
- Kass × 10^6 (L/mole) Human Thrombin (Human Thrombin): 15 × 10^6 L/mole
- Human Plasma Anticoagulation 2x Clotting time TT (Human Plasma [2]): 23 ng/mL
- Human Plasma Anticoagulation 2x Clotting time PT (Human Plasma [3]): 650 ng/mL
- Kass × 10^6 (L/mole) Xa (factor Xa): 0.01 × 10^6 L/mole

Molecule: HOOCCH2 -D-hPhe-Pro-p-NHCH2 C6 H4 C(NH)NH2.HCl [Example 87]
- Human Plasma Anticoagulation 2x Clotting time APTT (Human Plasma [1]): 260 ng/mL
- Kass × 10^6 (L/mole) Human Thrombin (Human Thrombin): 30 × 10^6 L/mole
- Human Plasma Anticoagulation 2x Clotting time TT (Human Plasma [2]): 9 ng/mL
- Human Plasma Anticoagulation 2x Clotting time PT (Human Plasma [3]): 310 ng/mL
- Kass × 10^6 (L/mole) Xa (factor Xa): 2.5 × 10^6 L/mole
